According to US20230257396A1, “MACROCYCLES AND THEIR USE” (BLOSSOMHILL THERAPEUTICS, INC., priority 2020, published 2023):

Key:
Assay in all cases: KINOMEscan kinase binding assay (Eurofins/DiscoveRx), % Ctrl
Conditions in all cases: 1 μM
kinases [1] = target: T1, kinases (Homo sapiens, UniProt P00519, Y253F)
T1 construct: purchased Eurofins/DiscoveRx; host or cells: E. coli BL21-derived host (T7 phage display) for most kinases; HEK-293 for the rest
In short: (§1)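 Read-out is qPCR of kinase eluted from ligand-coated streptavidin beads after 1 h room-temperature competition with test compound. Values are % Ctrl at the tested concentration, lower meaning tighter binding.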

kinases [2] = target: T2, kinases (Homo sapiens, UniProt P00533)
T2 construct: purchased Eurofins/DiscoveRx; host or cells: E. coli BL21-derived host (T7 phage display) for most kinases; HEK-293 for the rest
In short: as §1

kinases [3] = target: T3, kinases (Homo sapiens, UniProt P00533, L858R)
T3 construct: purchased Eurofins/DiscoveRx; host or cells: E. coli BL21-derived host (T7 phage display) for most kinases; HEK-293 for the rest
In short: as §1

kinases [4] = target: T4, kinases (Homo sapiens, UniProt P00533, T790M)
T4 construct: purchased Eurofins/DiscoveRx; host or cells: E. coli BL21-derived host (T7 phage display) for most kinases; HEK-293 for the rest
In short: as §1

kinases [5] = target: T5, kinases (Homo sapiens, UniProt P10721, A829P)
T5 construct: purchased Eurofins/DiscoveRx; host or cells: E. coli BL21-derived host (T7 phage display) for most kinases; HEK-293 for the rest
In short: as §1

kinases [6] = system: kinases
In short: as §1

[7] = target ABL1(Y253F)-phosphorylated
[8] = target EGFR(L747-E749del, A750P)
[9] = target EGFR(L747-S752del, P753S)
[10] = target EGFR(L747-T751del, Sins)

T5 sequence (P10721 26-976 A829P): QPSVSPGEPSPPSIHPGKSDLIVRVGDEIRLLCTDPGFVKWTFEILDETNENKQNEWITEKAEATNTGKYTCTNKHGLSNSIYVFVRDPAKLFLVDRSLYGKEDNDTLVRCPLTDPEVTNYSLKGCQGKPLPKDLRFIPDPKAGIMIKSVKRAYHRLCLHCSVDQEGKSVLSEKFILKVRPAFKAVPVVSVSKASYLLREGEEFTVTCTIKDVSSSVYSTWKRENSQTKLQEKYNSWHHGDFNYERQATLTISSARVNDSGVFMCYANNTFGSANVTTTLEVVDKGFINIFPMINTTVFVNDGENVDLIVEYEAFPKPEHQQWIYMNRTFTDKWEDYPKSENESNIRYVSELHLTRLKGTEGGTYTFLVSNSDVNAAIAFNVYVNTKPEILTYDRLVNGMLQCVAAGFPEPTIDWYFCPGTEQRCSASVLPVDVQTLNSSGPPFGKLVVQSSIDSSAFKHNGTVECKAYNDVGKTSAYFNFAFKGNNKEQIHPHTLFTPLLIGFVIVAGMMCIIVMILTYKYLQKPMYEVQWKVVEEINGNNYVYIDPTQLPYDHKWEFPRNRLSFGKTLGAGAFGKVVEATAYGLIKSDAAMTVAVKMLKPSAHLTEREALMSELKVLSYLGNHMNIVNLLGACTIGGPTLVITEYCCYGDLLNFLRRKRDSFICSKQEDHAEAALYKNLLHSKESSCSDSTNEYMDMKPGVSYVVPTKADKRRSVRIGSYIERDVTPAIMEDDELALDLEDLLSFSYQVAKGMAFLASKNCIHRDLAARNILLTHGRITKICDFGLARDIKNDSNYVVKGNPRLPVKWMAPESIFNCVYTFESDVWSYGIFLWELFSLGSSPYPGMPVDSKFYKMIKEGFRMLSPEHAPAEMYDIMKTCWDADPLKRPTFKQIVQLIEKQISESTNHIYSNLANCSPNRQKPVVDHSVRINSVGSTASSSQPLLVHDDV

| Compound | % Ctrl, ABL1(Y253F)-phosphorylated (kinases [1]; ABL1(Y253F)-phosphorylated) [% Ctrl] | % Ctrl, EGFR (kinases [2]; EGFR) [% Ctrl] | % Ctrl, EGFR(L858R) (kinases [3]; EGFR(L858R)) [% Ctrl] | % Ctrl, EGFR(T790M) (kinases [4]; EGFR(T790M)) [% Ctrl] | % Ctrl, KIT(A829P) (kinases [5]; KIT(A829P)) [% Ctrl] | % Ctrl, EGFR(L747-E749del, A750P) (kinases [6]; EGFR(L747-E749del, A750P)) [% Ctrl] | % Ctrl, EGFR(L747-S752del, P753S) (kinases [6]; EGFR(L747-S752del, P753S)) [% Ctrl] | % Ctrl, EGFR(L747-T751del, Sins) (kinases [6]; EGFR(L747-T751del, Sins)) [% Ctrl] | % Ctrl, FLT3(ITD) (kinases [6]; FLT3(ITD)) [% Ctrl] | % Ctrl, ABL1(Y253F)-phosphorylated (kinases [1]; [7]) [% Ctrl] | % Ctrl, EGFR (kinases [2]; target EGFR) [% Ctrl] | % Ctrl, EGFR(L858R) (kinases [3]; target EGFR(L858R)) [% Ctrl] | % Ctrl, EGFR(T790M) (kinases [4]; target EGFR(T790M)) [% Ctrl] | % Ctrl, KIT(A829P) (kinases [5]; target KIT(A829P)) [% Ctrl] | % Ctrl, EGFR(L747-E749del, A750P) (kinases [6]; [8]) [% Ctrl] | % Ctrl, EGFR(L747-S752del, P753S) (kinases [6]; [9]) [% Ctrl] | % Ctrl, EGFR(L747-T751del, Sins) (kinases [6]; [10]) [% Ctrl] | % Ctrl, FLT3(ITD) (kinases [6]; target FLT3(ITD)) [% Ctrl] | % Ctrl, FLT3(ITD, D835V) (kinases [6]; target FLT3(ITD, D835V)) [% Ctrl] | % Ctrl, FLT3(ITD, F691L) (kinases [6]; target FLT3(ITD, F691L)) [% Ctrl] | further results |
| --- | --- | --- | --- | --- | --- | --- | --- | --- | --- | --- | --- | --- | --- | --- | --- | --- | --- | --- | --- | --- | --- |
| Cc1cc2c([nH]1)/C=C1\C(=O)Nc3cc(Cl)c(cc31)OCCO[C@@H](C(=O)NC1CCNCC1)CN(C)C2=O [Ex. 134, [7R,16a(17)Z]-19-chloro-2,5-dimethyl-4,16-dioxo-N-(piperidin-4-yl)-4,5,6,7,9,10,15,16-octahydro-1H-12,14-(ethaneidylidene)dipyrrolo[3,2-i:3′,4′-l][1,4,7]dioxazacyclopentadecine-7-carboxamide] | 32 | 96 | 89 | 92 | 69 | 83 | 87 | 99 | 35 |  |  |  |  |  |  |  |  |  |  |  | % Ctrl, FLT3(ITD, D835V) (kinases [6]; FLT3(ITD, D835V)): 3.2 % Ctrl; % Ctrl, FLT3(ITD, F691L) (kinases [6]; FLT3(ITD, F691L)): 6.1 % Ctrl |
| CNC(=O)[C@H]1CN(C)C(=O)c2cc(C)[nH]c2/C=C2\C(=O)Nc3cc(Cl)c(cc32)OCCO1 [Ex. 135, [7R,16a(17)Z]-19-chloro-N,2,5-trimethyl-4,16-dioxo-4,5,6,7,9,10,15,16-octahydro-1H-12,14-(ethanediylidene)dipyrrolo[3,2-i:3′,4′-l][1,4,7]dioxazacyclopentadecine-7-carboxamide] | 55 | 100 | 93 | 94 | 75 | 82 | 80 | 98 | 52 |  |  |  |  |  |  |  |  |  |  |  | % Ctrl, FLT3(ITD, D835V) (kinases [6]; FLT3(ITD, D835V)): 11 % Ctrl; % Ctrl, FLT3(ITD, F691L) (kinases [6]; FLT3(ITD, F691L)): 25 % Ctrl |
| Cc1cc2c([nH]1)/C=C1\C(=O)Nc3cc(Cl)c(cc31)OCCO[C@@H](C(=O)N[C@@H]1CCNC1)CN(C)C2=O [Ex. 136, [7R,16a(17)Z]-19-chloro-2,5-dimethyl-4,16-dioxo-N-[(3R)-pyrrolidin-3-yl]-4,5,6,7,9,10,15,16-octahydro-1H-12,14-(ethanediylidene)dipyrrolo[3,2-i:3′,4′-l][1,4,7]dioxazacyclopentadecine-7-carboxamide] | 16 | 98 | 90 | 96 | 64 | 80 | 82 | 94 | 23 |  |  |  |  |  |  |  |  |  |  |  | % Ctrl, FLT3(ITD, D835V) (kinases [6]; FLT3(ITD, D835V)): 2.8 % Ctrl; % Ctrl, FLT3(ITD, F691L) (kinases [6]; FLT3(ITD, F691L)): 5.7 % Ctrl |
| Cc1cc2c([nH]1)/C=C1\C(=O)Nc3cc(Cl)c(cc31)OCCO[C@@H](C(=O)N(C)C)CN(C)C2=O [Ex. 137, [7R,16a(17)Z]-19-chloro-N,N,2,5-tetramethyl-4,16-dioxo-4,5,6,7,9,10,15,16-octahydro-1H-12,14-(ethanediylidene)dipyrrolo[3,2-i:3′,4′-l][1,4,7]dioxazacyclopentadecine-7-carboxamide] | 60 | 100 | 99 | 94 | 75 | 100 | 100 | 100 | 44 |  |  |  |  |  |  |  |  |  |  |  | % Ctrl, FLT3(ITD, D835V) (kinases [6]; FLT3(ITD, D835V)): 9.1 % Ctrl; % Ctrl, FLT3(ITD, F691L) (kinases [6]; FLT3(ITD, F691L)): 29 % Ctrl |
| Cc1cc2c([nH]1)/C=C1\C(=O)Nc3cc(Cl)c(cc31)OCCO[C@@H](C(=O)N1CCN(C)CC1)CN(C)C2=O [Ex. 138, [7R,16a(17)Z]-19-chloro-2,5-dimethyl-7-(4-methylpipearazine-1-carbonyl)-6,7,9,10-tetrahydro-1H-12,14-(ethanediylidene)dipyrrolo[3,2-i:3′,4′-l][1,4,7]dioxazacyclopentadecine-4,16(5H,15H)-dione] |  |  |  |  |  |  |  |  |  | 91 | 76 | 78 | 94 | 100 | 100 | 61 | 96 | 73 | 24 | 49 |  |
| Cc1cc2c([nH]1)/C=C1\C(=O)Nc3ccc(cc31)-c1c(noc1C)CNCCN(C)C2=O [Ex. 139, [3a(4)Z]-6,9,16-trimethyl-10,11,12,13-tetrahydro-2H-1,17-(ethanediylidene)[1,2]oxazolo[4,3-m]dipyrrolo[3,2-f:3′,4′-i][1,4]diazacyclopentadecine-3,8(5H,9H)-dione] |  |  |  |  |  |  |  |  |  | 11 | 94 | 80 | 36 | 74 | 71 | 77 | 81 | 8.1 | 1.2 | 0.9 |  |
| CN1CCOCCOc2cc3c(cc2Cl)NC(=O)/C3=C\c2[nH]ccc2C1=O [Ex. 143, [16a(17)Z]-19-chloro-2,5-dimethyl-6,7,9,10-tetrahydro-1H-12,14-(ethanediylidene)dipyrrolo[3,2-i:3′,4′-l][1,4,7]oxathiazacyclopentadecine-4,16(5H,15H)-dione] |  |  |  |  |  |  |  |  |  | 9.1 | 100 | 86 | 100 | 51 | 90 | 89 | 96 | 2.5 | 0.6 | 1 |  |
| Cc1cc2c([nH]1)/C=C1\C(=O)Nc3ccc(cc31)-c1c(C)nn(C)c1COCCN(C)C2=O [Ex. 146, [3a(4)Z]-6,9,14,16-tetramethyl-10,11,13,14-tetrahydro-2H-1,17-(ethanediylidene)pyrazolo[4,3-m]dipyrrolo[3,2-f:3′,4′-i][1,4]oxazacyclopentadecine-3,8(5H,9H)-dione] |  |  |  |  |  |  |  |  |  | 89 | 51 | 88 | 57 | 92 | 38 | 60 | 77 | 4.7 | 0.3 | 3.2 |  |
| Cc1nn(C)c2c1-c1ccc3c(c1)/C(=C/c1[nH]ccc1C(=O)N(C)CCCO2)C(=O)N3 [Ex. 150, [3a(4)Z]-9,14,16-trimethyl-10,11,13,14-tetrahydro-2H-1,17-(ethanediylidene)pyrazolo[4,3-m]dipyrrolo[3,2-f:3′,4′-i][1,4]oxazacyclopentadecine-3,8(5H,9H)-dione] |  |  |  |  |  |  |  |  |  | 100 | 61 | 77 | 86 | 96 | 94 | 100 | 94 | 72 | 35 | 59 |  |
